Measured values reported in patent US4550186A, “Binuclear copper (II) carboxylates formed from amine-carboxyboranes” (Duke University, priority 1983, dated 1985).

Assays:
[1] = system: ribonucleic acid synthesis of Ehrlich ascites cells; assay: In vivo uridine incorporation into ribonucleic acid; set-up: species or system mouse
Protocol: (§1) CF1 male mice (~30 g) were implanted with 2×10^6 Ehrlich ascites tumor cells, intraperitoneally on Day 0. Compound I was suspended by homogenation in 0.05% polysorbate.80-water and administered intraperitoneally at 10 and 20 mg/kg for 9 days to determine its effectiveness for inhibition of tumor growth. Mice were sacrificed on Day 10, and the ascites fluid was collected from the peritoneal cavity. The volume and ascrit (packed cell volume) were determined for each animal and the percent inhibition of tumor growth was calculated. For the metabolic studies, mice were treated on Days 8 and 9 with 10 mg/kg of Compound I, intraperitoneally. The animal was sacrificed on Day 10 and the ascites fluid harvested. […]
For in vivo studies, incorporation of thymidine into deoxyribonucleic acid was determined by the method of Chae et al [Proc. Am. […] The deoxyribonucleic acid was isolated and the tritium content was determined in a toluene based scintillation fluid. The deoxyribonucleic acid concentration was determined by the diphenylamine reaction using calf thymus deoxyribonucleic acid as a standard. Uridine incorporation into ribonucleic acid was determined using 10 μCi of 5,6-^3 H-uridine (22.4 Ci/mmol). […] Leucine incorporation into protein was determined by the method of Sartorelli [Biochem. Biophys. […] Protein content was determined by the Lowry procedure using bovine serum albumin as a standard.

thymidylate synthetase = thymidylate synthetase (Mus musculus, UniProt P07607); assay: In vitro thymidylate synthetase activity; format: biochemical; details: 0.25 to 1.0 mM
thymidylate synthetase, sequence (P07607 whole entry): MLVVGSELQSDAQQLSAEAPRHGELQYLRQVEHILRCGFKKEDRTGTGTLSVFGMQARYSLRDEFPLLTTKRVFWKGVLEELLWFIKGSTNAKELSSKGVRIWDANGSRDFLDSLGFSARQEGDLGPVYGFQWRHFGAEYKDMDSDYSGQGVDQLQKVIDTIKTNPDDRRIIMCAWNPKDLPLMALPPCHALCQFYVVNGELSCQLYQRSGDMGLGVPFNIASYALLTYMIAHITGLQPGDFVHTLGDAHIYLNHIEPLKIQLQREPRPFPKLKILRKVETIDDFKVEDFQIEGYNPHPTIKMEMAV
Protocol: as §1, with “intraperitoneally.” for “intraperitoneally. The animal was sacrificed on Day 10 and the ascites fluid harvested.”
Carbamyl phosphate synthetase activity was determined using the reaction medium of Kalman et al [Am. […] Citrulline formed from ornithine was measured at 490 nm by the method of Archibald [J. Biol. Chem., 156, 121 (1944)]. […] The ^14 CO2 generated in 15 min was trapped in 1M KOH and counted. Thymidylate synthetase activity was determined using a post-mitochondrial supernatant (9000 g×10 min) and 5 μCi of 5-^3 H-deoxyuridine monophosphate (14 Ci/mmol) according to the method of Kampf et al [ J. Med. Chem., 19, 903 (1976)]. ^14 C-Formate incorporation into purines was determined by the method of Spassova et al [Biochem. Pharmacol., 25, 923 (1976)] using 0.5 μCi of ^14 C-formic acid (52.0 mCi/mmol). […] The Rf value for xanthine monophosphate was scraped and counted. […]

{Cu[(CH3)3 N.BH2 CO2 ]2.(CH3)3 N.BH2 COOH} [Compound I]
3H-Uridine incorporation into ribonucleic acid ([1]; 10 mg/kg/day I.P. on Days 8 and 9): 116 ± 10 % Control | uridine incorporation into ribonucleic acid ([1]; 10 day Ehrlich ascites cells): unaffected | thymidylate synthetase inhibition (thymidylate synthetase): not inhibited
